Results on 2 molecules are retold here after patent EP0606747A1, “Tilmicosin and derivatives for treating gram-positive diseases of aquatic species” (ELI LILLY AND COMPANY, priority 1992, dated 1994).

Series [1] deals with Renibacterium salmoninarum. Description: In vitro evaluation of tilmicosin against Renibacterium salmoninarum (MIC). As to conditions: for MIC: Renibacterium salmoninarum, read-out: minimum inhibitory concentration (MIC). The format is cell-based. As for the experimental part: Test 1: In vitro evaluation of tilmicosin against Renibacterium salmoninarum.
A dozen strains of Renibactenum salmoninarum were obtained and cultured in standard procedures. Eight grew successfully and were employed in the evaluation of tilmicosin.
Tilmicosin was evaluated at various concentrations and the minimum inhibitory concentration (MIC) determined for each of the strains. For three of the strains, the MIC was 1 µg/ml; for the remaining five strains, the MIC was 2 µg/ml.

Series [2] is described as follows: Test 2: palatability and growth study in Atlantic salmon, medicated diets, four weeks. The format is in vivo, Atlantic salmon (Salmo salar). The note with it: all fish at the end of the four-week study. As for the experimental part:
Test 2: Palatability and growth studies in Atlantic salmon.
A trial was conducted to determine the palatability and effect on growth of Atlantic salmon (Salmo salar), St. John River strain, of diets containing various concentrations of tilmicosin. Pre-smolt salmon, each weighing about 50 grams, from a stock certified to be free of bacterial kidney disease, were used. The fish were acclimatized for four weeks. During this period, the fish were in tanks maintained with fresh single-pass flow-through well water, 10±2°C., and a photoperiod of 12/12. Water flow rate was adequate to provide a dissolved oxygen concentration of ≧ 5 mg/liter post feeding and under conditions of normal activity provided a dissolved oxygen concentration of ≧ 8 mg/liter. All fish were fed a standard diet. […]
All fish were fed 3× on weekdays and 1× or 2× on weekend days. […] The trial lasted four weeks, and the following parameters were determined: feed intake feed intake as % of body weight weight gain weight gain as % of body weight feed conversion At the end of the four weeks, the fish were sacrificed and tissue from liver, muscle, and kidney analyzed for tilmicosin by an HPLC assay. […] Quantitative determination of tilmicosin was accomplished by reversed-phase HPLC with a phenylsilyl stationary phase and a U.V. absorption detector at 280 nm. […]

Series [3] in a line: Test 3: palatability and growth study in Atlantic salmon, tilmicosin base versus phosphate salt. The format is in vivo, Atlantic salmon (Salmo salar). As to conditions: 800 mg/kg of diet (free base equivalent), four weeks; cause of death could not be determined. As for the experimental part: Test 3: Palatability and Growth Studies in Atlantic Salmon, Comparing Tilmicosin Base and Phosphate Salt
A trial was conducted to determine the palatability to Atlantic salmon (Salmo salar), St. John River strain, of diets containing either tilmicosin (free base) or tilmicosin phosphate. Pre-smolt salmon, each weighing about 50 grams, from a certified disease free stock, were used. The salmon, 30 per tank and 9 tanks, were acclimatized for about two weeks. During this period and throughout the trial, the tanks were maintained with fresh single-pass flow-through well water, 2 liters per minute, 12 ± 1°C., and the photoperiod was 12/12. During the acclimatization, all fish were fed a standard feed. Thereafter the salmon in three tanks continued to receive the standard diet, to serve as a control. The salmon in three other tanks received a modified diet containing 800 mg of tilmicosin (free base) per kilogram of diet; the salmon in the last three tanks received a modified diet containing tilmicosin phosphate in an amount equivalent to 800 mg of tilmicosin (free base) per kilogram of diet. […] The trial was continued for a four-week period, during which these parameters were evaluated: feed intake feed intake as % of body weight weight gain weight gain as % of body weight feed conversion All surviving fish were euthanized. […]

Converted amounts (≈) assume the structure as drawn. Read-outs that look alike come from different tables or passages of the source.

Turning to `CC[C@H]1OC(=O)C[C@@H](O)[C@H](C)[C@@H](O[C@@H]2O[C@H](C)[C@@H](O)[C@H](N(C)C)[C@H]2O)[C@@H](CCN2C[C@H](C)C[C@H](C)C2)C[C@@H](C)C(=O)/C=C/C(C)=C/[C@@H]1CO[C@@H]1O[C@H](C)[C@@H](O)[C@@H](OC)[C@H]1OC` [tilmicosin], the MIC in series [1] (remaining five of the eight strains) amounted to 2 µg/mL (≈ 2.3 µM); in series [1] (three of the eight strains), 1 µg/mL (≈ 1.15 µM). Further, the growth result in series [1] (lower concentrations down to 0.25 µg/ml) is “dramatic reduction in growth”. Also, the Post-mortem examination result in series [2] is “no gross abnormalities”.
Consider tilmicosin phosphate, for which the mortality entry in series [3] is “One fish from the tank receiving tilmicosin phosphate died”.
